Patent US4550186A, “Binuclear copper (II) carboxylates formed from amine-carboxyboranes” (Duke University, priority 1983, dated 1985)

Experiments:
[1] = tested on: aspartate transcarbamylase; assay: In vivo aspartate transcarbamylase activity; parameters: species or system mouse
Procedure: (§1) CF1 male mice (~30 g) were implanted with 2×10^6 Ehrlich ascites tumor cells, intraperitoneally on Day 0. Compound I was suspended by homogenation in 0.05% polysorbate.80-water and administered intraperitoneally at 10 and 20 mg/kg for 9 days to determine its effectiveness for inhibition of tumor growth. Mice were sacrificed on Day 10, and the ascites fluid was collected from the peritoneal cavity. The volume and ascrit (packed cell volume) were determined for each animal and the percent inhibition of tumor growth was calculated. For the metabolic studies, mice were treated on Days 8 and 9 with 10 mg/kg of Compound I, intraperitoneally. […]
(§2) Carbamyl phosphate synthetase activity was determined using the reaction medium of Kalman et al [Am. […] Citrulline formed from ornithine was measured at 490 nm by the method of Archibald [J. Biol. Chem., 156, 121 (1944)]. […] The ^14 CO2 generated in 15 min was trapped in 1M KOH and counted. Thymidylate synthetase activity was determined using a post-mitochondrial supernatant (9000 g×10 min) and 5 μCi of 5-^3 H-deoxyuridine monophosphate (14 Ci/mmol) according to the method of Kampf et al [ J. Med. Chem., 19, 903 (1976)]. ^14 C-Formate incorporation into purines was determined by the method of Spassova et al [Biochem. Pharmacol., 25, 923 (1976)] using 0.5 μCi of ^14 C-formic acid (52.0 mCi/mmol). […] The Rf value for xanthine monophosphate was scraped and counted. […]

[2] = target: T1, carbamyl phosphate synthetase (Mus musculus, UniProt B2RQC6); assay: In vivo carbamyl phosphate synthetase activity
T1 construct: CPSase II domain of CAD; ornithine transcarbamylase used as coupling enzyme
T1 sequence (B2RQC6 2-2225): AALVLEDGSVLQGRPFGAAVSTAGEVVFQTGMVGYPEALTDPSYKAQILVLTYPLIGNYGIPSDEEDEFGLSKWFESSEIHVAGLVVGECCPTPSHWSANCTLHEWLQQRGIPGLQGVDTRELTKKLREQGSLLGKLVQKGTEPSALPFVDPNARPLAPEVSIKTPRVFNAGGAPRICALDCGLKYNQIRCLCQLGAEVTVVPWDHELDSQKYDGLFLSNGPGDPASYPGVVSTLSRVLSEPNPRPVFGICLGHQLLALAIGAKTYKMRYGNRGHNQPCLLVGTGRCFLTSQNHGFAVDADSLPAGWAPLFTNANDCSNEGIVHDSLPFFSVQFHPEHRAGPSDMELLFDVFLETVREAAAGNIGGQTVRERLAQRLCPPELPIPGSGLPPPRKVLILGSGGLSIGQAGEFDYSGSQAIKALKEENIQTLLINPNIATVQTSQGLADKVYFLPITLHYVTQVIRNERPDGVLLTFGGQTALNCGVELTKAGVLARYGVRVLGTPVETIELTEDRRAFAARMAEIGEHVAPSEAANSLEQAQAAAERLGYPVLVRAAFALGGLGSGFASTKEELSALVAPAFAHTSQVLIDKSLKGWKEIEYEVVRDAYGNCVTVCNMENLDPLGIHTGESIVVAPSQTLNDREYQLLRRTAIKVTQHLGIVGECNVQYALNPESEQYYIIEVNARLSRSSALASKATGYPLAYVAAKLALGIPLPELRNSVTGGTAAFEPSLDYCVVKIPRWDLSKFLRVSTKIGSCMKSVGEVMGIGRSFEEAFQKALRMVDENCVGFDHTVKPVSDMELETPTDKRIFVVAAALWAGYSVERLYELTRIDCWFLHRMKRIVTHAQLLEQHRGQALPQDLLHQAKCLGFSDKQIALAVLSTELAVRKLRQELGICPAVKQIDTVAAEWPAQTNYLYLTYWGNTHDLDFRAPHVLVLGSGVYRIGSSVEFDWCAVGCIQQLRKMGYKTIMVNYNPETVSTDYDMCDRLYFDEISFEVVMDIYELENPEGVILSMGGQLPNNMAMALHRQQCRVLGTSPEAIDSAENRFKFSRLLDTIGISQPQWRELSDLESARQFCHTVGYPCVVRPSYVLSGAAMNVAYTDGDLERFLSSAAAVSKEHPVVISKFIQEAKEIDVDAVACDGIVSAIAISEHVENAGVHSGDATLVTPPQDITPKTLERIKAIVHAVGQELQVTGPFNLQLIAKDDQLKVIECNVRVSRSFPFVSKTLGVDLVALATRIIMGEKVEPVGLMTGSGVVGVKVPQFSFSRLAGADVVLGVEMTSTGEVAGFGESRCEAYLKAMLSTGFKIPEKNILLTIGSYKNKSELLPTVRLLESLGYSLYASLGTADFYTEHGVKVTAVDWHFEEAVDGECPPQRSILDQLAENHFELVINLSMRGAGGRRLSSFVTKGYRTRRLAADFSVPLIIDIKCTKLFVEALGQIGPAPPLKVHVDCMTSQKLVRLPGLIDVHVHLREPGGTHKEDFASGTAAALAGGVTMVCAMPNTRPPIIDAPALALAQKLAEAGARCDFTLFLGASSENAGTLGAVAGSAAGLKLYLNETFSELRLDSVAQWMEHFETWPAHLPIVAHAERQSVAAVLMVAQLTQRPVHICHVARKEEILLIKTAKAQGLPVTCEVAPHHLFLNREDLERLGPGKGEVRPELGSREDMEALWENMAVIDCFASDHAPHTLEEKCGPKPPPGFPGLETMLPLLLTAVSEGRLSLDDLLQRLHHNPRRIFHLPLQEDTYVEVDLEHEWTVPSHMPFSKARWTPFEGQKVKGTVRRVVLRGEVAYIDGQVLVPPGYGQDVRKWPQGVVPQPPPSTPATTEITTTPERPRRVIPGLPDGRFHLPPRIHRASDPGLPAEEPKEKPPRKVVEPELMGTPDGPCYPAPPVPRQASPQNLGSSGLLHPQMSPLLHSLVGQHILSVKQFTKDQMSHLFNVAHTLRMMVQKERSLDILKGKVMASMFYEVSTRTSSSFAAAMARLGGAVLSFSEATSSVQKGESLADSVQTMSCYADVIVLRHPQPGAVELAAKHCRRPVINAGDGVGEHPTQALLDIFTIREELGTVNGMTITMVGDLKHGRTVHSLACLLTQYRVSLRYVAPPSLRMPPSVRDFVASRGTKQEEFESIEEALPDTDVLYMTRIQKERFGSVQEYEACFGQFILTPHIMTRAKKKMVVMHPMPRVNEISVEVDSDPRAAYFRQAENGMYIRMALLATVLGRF
Procedure: as §1, §2

[3] = tested on: thymidylate monophosphate, diphosphate and triphosphate levels of Ehrlich ascites cells; assay: In vivo thymidine incorporation into nucleotide pools; parameters: species or system mouse
Procedure: (§3) CF1 male mice (~30 g) were implanted with 2×10^6 Ehrlich ascites tumor cells, intraperitoneally on Day 0. Compound I was suspended by homogenation in 0.05% polysorbate.80-water and administered intraperitoneally at 10 and 20 mg/kg for 9 days to determine its effectiveness for inhibition of tumor growth. Mice were sacrificed on Day 10, and the ascites fluid was collected from the peritoneal cavity. The volume and ascrit (packed cell volume) were determined for each animal and the percent inhibition of tumor growth was calculated. For the metabolic studies, mice were treated on Days 8 and 9 with 10 mg/kg of Compound I, intraperitoneally. The animal was sacrificed on Day 10 and the ascites fluid harvested. The in vitro metabolic studies were performed at […] final concentration of Compound I.
Deoxythymidine as well as deoxythymidylate monophosphate and diphosphate kinase activities were measured spectrophotometrically at 340 nm at 30 min using reduced nicotinamide adenine dinucleotide (0.1 μmole). Thymidine incorporation (6-^3 H - 21.5 Ci/mmol) into nucleotides was measured using the medium of Maley and Ochoa [J. Biol. Chem., 223, 1538 (1958)]. The reaction medium was extracted with ether and the aqueous layer plated on PEI cellulose F plates and eluted with 0.5N formic acid: 0.6M LiCl (1:1). Areas which correlated with Rf values of thymidine, thymidylate monophosphate, diphosphate and triphosphate standards were scraped and counted.

[4] = tested on: deoxyribonucleic acid synthesis of Ehrlich ascites cells; assay: In vitro whole cell incorporation: deoxyribonucleic acid synthesis; type: cell-based, mouse; conditions: preliminary, 60 min, read-out: ID50, inhibition of deoxyribonucleic acid synthesis
Procedure: as §3
In vitro incorporation of ^3 H-thymidine, ^3 H-uridine, or ^3 H-leucine was determined using 10^6 Ehrlich ascites cells, 1 μCi labeled precursor, minimum essential medium and varying final concentrations of drug from 0.25-1.0 mM. The tubes were incubated at 37° C. for 60 min and inactivated by trichloroacetic acid. The acid insoluble labeled deoxyribonucleic acid was collected on GF/F glass filter discs and ribonucleic acid and protein were precipitated on nitrocellulose filters by vacuum suction. Results are expressed as dpm of incorporated precursor per hour per 10^6 cells.

[5] = 10 mg/kg/day I.P. on Days 8 and 9

In the case of “{Cu[(CH3)3 N.BH2 CO2 ]2.(CH3)3 N.BH2 COOH} [Compound I]”, the “Aspartate carbamyl transferase activity suppressed” value [1] is reported as 11%, the Aspartate transcarbamylase activity [1, 5] is reported as 89 ± 8 % Control and the “Carbamyl phosphate synthetase activity reduced” value [2] is reported as 23%. For the same substance, the “Carbamyl phosphate synthetase activity” value [2, 5] was 77 ± 8 % Control, the “3H-Thymidine incorporation into thymidylate monophosphate pool reduced” value [3] was 57% and the TDP pool reduced [3] was 19%. For the same substance, the TTP pool reduced [3] was 10%, the Thymidylate diphosphate levels [3, 5] was 89 ± 11 % Control and the Thymidylate monophosphate levels [3, 5] was 43 ± 6 % Control. For the same substance, the Thymidylate triphosphate levels [3, 5] was 90 ± 10 % Control and the IC50 [4] was 940 µM.
